Legend:
RORγt = target: T1, RORγt (Homo sapiens, UniProt P51449); assay: EC50 test, inhibition of RORγt transcription activity (luciferase activity reporter system) in RORγt-LBD+-Jurkat cells; type: cell-based; settings: for EC50: half maximal effective concentration against RORγt-LBD+-Jurkat cells
T1 construct: half maximal effective concentration against RORγt-LBD+-Jurkat cells; expressed in transfected cells; host or cells: Jurkat
T1 sequence (P51449 269-508 limits assumed): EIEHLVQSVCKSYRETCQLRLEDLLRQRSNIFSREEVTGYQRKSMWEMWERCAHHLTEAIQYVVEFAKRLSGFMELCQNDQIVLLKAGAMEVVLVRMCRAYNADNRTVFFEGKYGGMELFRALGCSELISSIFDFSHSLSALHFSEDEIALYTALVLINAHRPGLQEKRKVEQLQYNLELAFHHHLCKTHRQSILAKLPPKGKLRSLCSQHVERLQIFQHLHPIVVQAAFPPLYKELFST
From the text: (§1) EC50 and CC50 tests: EC50 (half maximal (50%) effective concentration) is a half maximal effective concentration against RORγt-LBD+-Jurkat cells, and CC50 (median (50%) cytotoxic concentration) is a median cytotoxic concentration against RORγt-LBD+-Jurkat cells.

IL-17A = assay: Intracellular protein expression of IL-17A (flow cytometer), Th17 cells; type: cell-based; settings: FIG. 21; 1.56, 3.12 and 6.25 μM compound vs solvent group
From the text: The compound for inhibiting RORγt activity as described above may be used in preparation of a therapeutic formulation for the treatment of autoimmune diseases, in preparation of a formulation that inhibits formation of a Th17 cell, in preparation of a formulation that inhibits the RORγt transcription activity, or in preparation of a formulation that inhibits transcription and expression of IL17A gene and/or IL17F gene. The compounds having the structural formula (A) has a good inhibitory effect on RORγt activity. […] Therefore, the compound may be used to produce a formulation of corresponding activity inhibitor, and provide a leading structure for the development of therapeutic drugs for autoimmune diseases.
(§2) In the figure, the results of solvent group, 1.56 μM compound group, 3.12 μM compound group, and 6.25 μM compound group are shown from left to right.

[1] = CC50 test, median cytotoxic concentration against RORγt-LBD+-Jurkat cells; type: cell-based; settings: human
From the text: as §1

[2] = test system: RORγt, IL17A, IL-17F mRNA; assay: mRNA expression of RORγt, IL17A and IL-17F in Th17 cell differentiation in vitro; type: cell-based; settings: FIG. 22, 1.56, 3.12 and 6.25 μM compound vs solvent group
Description: as §2

Th17 cells = settings: cited from earlier work
other RORs = settings: cited from earlier work
EAE = settings: high concentrations (40 mg/kg); cited from earlier work

EC50 (RORγt)	SMILES	CC50 [1]	further results
> 10 µM	Cc1nc(Sc2nnnn2-c2ccccc2)c2c3c(sc2n1)CC(C)CC3 (stereo not drawn) [Compound 7]	> 10 µM	–
> 10 µM	CCC1CCc2c(sc3nc(C)nc(Sc4nnnn4-c4ccccc4)c23)C1 (stereo not drawn) [Compound 8]	> 10 µM	–
8.25 µM	Cc1nc(Sc2nnnn2-c2ccccc2)c2c3c(sc2n1)CC(C(C)(C)C)CC3 (stereo not drawn) [Compound 11]	< 1 µM	–
1.35 µM	Cc1nc(Sc2nnnn2-c2ccccc2)c2c3c(sc2n1)CC(F)(F)CC3 [Compound 12]	< 1 µM	–
> 20 µM	Cc1nc(Sc2nnnn2-c2ccccc2)c2c3c(sc2n1)CC(C(=O)O)CC3 (stereo not drawn) [Compound 14]	> 10 µM	–
> 10 µM	Cc1nc(Sc2nnnn2-c2ccccc2)c2c3c(sc2n1)CC(C(=O)NC1CCOCC1)CC3 (stereo not drawn) [Compound 15]	< 10 µM	–
> 10 µM	Cc1nc(Sc2nnnn2-c2ccccc2)c2c3c(sc2n1)CC(C(=O)Nc1ccc(C(C)C)cc1)CC3 (stereo not drawn) [Compound 17]	< 1 µM	–
12.6 µM	Cc1nc(Sc2nnnn2-c2ccccc2)c2c3c(sc2n1)CC(C(=O)NCc1ccccc1)CC3 (stereo not drawn) [Compound 18]	> 10 µM	–
> 10 µM	Cc1nc(Sc2nnnn2-c2ccccc2)c2c3c(sc2n1)CC(C(=O)Nc1nccs1)CC3 (stereo not drawn) [Compound 21]	< 10 µM	–

Second part, the compound before the results:

SMILES	EC50 (RORγt)	CC50 [1]	further results
Cc1nc(Sc2nnnn2-c2ccccc2)c2c3c(sc2n1)CCCC3 [Compound 6]	2.79 µM	3.98 µM	inhibition of intracellular protein expression of IL-17A (in words) (IL-17A): significant inhibitory effects; inhibition of mRNA expression of RORγt, IL17A and IL-17F (in words) [2]: significant inhibitory effects
CCCC1CCc2c(sc3nc(C)nc(Sc4nnnn4-c4ccccc4)c23)C1 (stereo not drawn) [Compound 9]	> 10 µM	> 10 µM	–
Cc1cccc(NC(=O)C2CCc3c(sc4nc(C)nc(Sc5nnnn5-c5ccccc5)c34)C2)c1 (stereo not drawn) [Compound 16]	> 10 µM	< 10 µM	–
Cc1nc(Sc2nnnn2-c2ccccc2)c2c3c(sc2n1)CC(C(=O)Nc1cccc(Cl)c1)CC3 (stereo not drawn) [Compound 19]	> 10 µM	< 10 µM	–
Cc1nc(Sc2nnnn2-c2ccccc2)c2c3c(sc2n1)CC(C(=O)Nc1ccc(Br)cc1)CC3 (stereo not drawn) [Compound 20]	> 10 µM	< 10 µM	–
Cc1nc(Sc2nnnn2-c2ccccc2)c2c3c(sc2n1)CC(C(=O)Nc1ncc(C)s1)CC3 (stereo not drawn) [Compound 22]	9.06 µM	4.32 µM	inhibition of intracellular protein expression of IL-17A (in words) (IL-17A): significant inhibitory effects; inhibition of mRNA expression of RORγt, IL17A and IL-17F (in words) [2]: significant inhibitory effects
Cc1nc(Sc2nnnn2-c2ccccc2)c2c3c(sc2n1)CC(C(=O)Nc1cccnc1)CC3 (stereo not drawn) [Compound 23]	> 10 µM	< 5 µM	–
Cc1nc(Sc2nnnn2-c2ccccc2)c2c3c(sc2n1)CC(C(=O)Nc1ccc(F)cn1)CC3 (stereo not drawn) [Compound 24]	> 10 µM	< 10 µM	–
Cc1nc(Sc2nnnn2-c2ccccc2)c2c3c(sc2n1)CC(C(=O)Nc1nc2ccc(F)cc2s1)CC3 (stereo not drawn) [Compound 25]	> 10 µM	< 5 µM	–
O=C(Cc1nc(Sc2nnnn2-c2ccccc2)c2c3c(sc2n1)CCCC3)Nc1nc2ccccc2[nH]1 [Compound 31]	0.85 µM	9.18 µM	inhibiting RORγt transcription activity (in words) (RORγt; FIG. 20): significant effect; inhibition of intracellular protein expression of IL-17A (in words) (IL-17A): significant inhibitory effects; inhibition of mRNA expression of RORγt, IL17A and IL-17F (in words) [2]: significant inhibitory effects
CC(=O)Nc1nc(C)c(S(=O)(=O)Nc2ccc(C(O)(C(F)(F)F)C(F)(F)F)cc2)s1 [SR1001]	–	–	inhibition of differentiation of Th17 cells in vitro (Th17 cells): effectively inhibit the differentiation of Th17 cells; selectivity (interaction with other RORs) (other RORs): poor selectivity; reduction of clinical symptoms of EAE in vivo (EAE): only reduce the clinical symptoms of EAE slightly

Reference: patent publication US20220227782A1, “COMPOUND FOR INHIBITING RORyt ACTIVITY, PREPARATION METHOD THEREFOR AND APPLICATION THEREOF” (CELLREGEN (BEIJING) LIFE SCIENCE AND TECHNOLOGY CO., LTD., priority 2019, published 2022)
